Like-named read-outs stand apart in the source and are kept apart here.

For assay [1], the target named is μ-opioid receptor (Homo sapiens, UniProt P35372). As to the kind of experiment: μ-opioid receptor [35S]GTPγS functional assay, U-2 OS cells. The format is biochemical. Also noted: expressed in transfected cells; host or cells: U-2 OS. Conditions: for EC50: read-out: GTPγS μ EC50; for Emax: relative to DAMGO. (GTPγS resists hydrolysis and so accumulates on activated G proteins.)

Assay [2] deals with κ opioid receptor (Homo sapiens, UniProt P41145). Kind of assay: κ-opioid receptor [35S]GTPγS functional assay, U-2 OS cells. Conditions: for Emax: read-out: GTPγS κ Emax. The format is biochemical. Also noted: expressed in transfected cells; host or cells: U-2 OS (in-house membranes).
κ opioid receptor, sequence (P41145 whole entry): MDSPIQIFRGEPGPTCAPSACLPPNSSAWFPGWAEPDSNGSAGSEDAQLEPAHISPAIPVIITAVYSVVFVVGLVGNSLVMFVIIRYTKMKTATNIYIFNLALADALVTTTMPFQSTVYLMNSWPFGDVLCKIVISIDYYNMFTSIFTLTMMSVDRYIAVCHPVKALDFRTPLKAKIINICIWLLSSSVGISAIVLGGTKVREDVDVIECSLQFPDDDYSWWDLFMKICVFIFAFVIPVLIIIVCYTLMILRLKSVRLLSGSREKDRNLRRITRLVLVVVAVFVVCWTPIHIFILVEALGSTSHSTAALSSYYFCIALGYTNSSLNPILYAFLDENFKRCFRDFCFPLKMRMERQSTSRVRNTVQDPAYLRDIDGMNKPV
Description: Membranes from recombinant HEK-293 cells, CHO or U-2 OS cells expressing the recombinant human κ opioid receptor (κ) were prepared by lysing cells in ice cold hypotonic buffer (2.5 mM MgCl2, 50 mM HEPES, pH 7.4) (10 mL/10 cm dish) followed by homogenization with a tissue grinder/Teflon pestle. […] Membranes were collected by centrifugation at 30,000×g for 15 min at 4° C. and pellets were resuspended in hypotonic buffer to a final concentration of 1-3 mg/mL. Protein concentrations were determined using the BioRad protein assay reagent with bovine serum albumen as standard. Aliquots of κ receptor membranes were stored at −80° C.
Plates were incubated for 30 min at a temperature of about 25° C. with shaking.
[3] abbreviates: U-2 OS cells, read-out: GTPγS μ Emax.
[4] abbreviates: U-2 OS cells, read-out: GTPγS κ EC50.
Where [5] appears, read: U-2 OS cells, relative to U69,593.

μ-opioid receptor, sequence (P35372 whole entry, species assumed): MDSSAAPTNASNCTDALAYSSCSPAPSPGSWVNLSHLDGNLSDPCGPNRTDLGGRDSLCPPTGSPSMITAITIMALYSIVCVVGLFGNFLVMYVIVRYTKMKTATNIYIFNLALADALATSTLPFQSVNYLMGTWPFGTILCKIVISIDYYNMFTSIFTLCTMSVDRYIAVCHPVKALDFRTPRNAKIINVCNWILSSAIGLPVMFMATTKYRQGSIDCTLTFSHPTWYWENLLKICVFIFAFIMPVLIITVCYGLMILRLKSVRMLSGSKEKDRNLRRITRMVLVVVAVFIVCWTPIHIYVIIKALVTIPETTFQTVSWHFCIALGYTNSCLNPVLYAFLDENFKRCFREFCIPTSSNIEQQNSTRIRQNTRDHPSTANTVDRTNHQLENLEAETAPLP

With `CC(C)CCC(=O)N(C)[C@H]1[C@H]2Cc3ccc(O)cc3[C@]1(C)CCN2C` [Compound 116, N-((2R,6S,11R)-8-hydroxy-3,6-dimethyl-1,2,3,4,5,6-hexahydro-2,6-methanobenzo[d]azocin-11-yl)-N,4-dimethylpentanamide], the concentration giving a half-maximal response (EC50) in assay [1] (U-2 OS cells) came out at 0.00312 ± 0.00015 µM; in assay [2] (setting [4]), 0.0694 ± 0.00537 µM. For the same compound, the Emax in assay [1] (setting [3]) came to 104 ± 2.96%; in assay [2] (setting [5]), 56.3 ± 3.93%.
Take `CN1CC[C@@]2(C)c3cc(O)ccc3C[C@@H]1[C@H]2N(C)C(=O)Cc1ccccc1` [Compound 117, N-((2R,6S,11S)-8-hydroxy-3,6-dimethyl-1,2,3,4,5,6-hexahydro-2,6-methanobenzo[d]azocin-11-yl)-N-methyl-2-phenylacetamide]: the EC50 turned out to be 0.822 ± 0.0939 µM in assay [1] (U-2 OS cells) and 3.39 ± 0.439 µM in assay [2] (setting [4]). For the same compound, the results for the maximal response (Emax) in assay [1] (setting [3]) and in assay [2] (setting [5]) were 93.7 ± 5.36% and 79.7 ± 5.46%, respectively.
In the same order, the values of `CN1CC[C@@]2(C)c3cc(O)ccc3C[C@@H]1[C@@H]2N(C)C(=O)Cc1ccccc1` [Compound 118, N-((2R,6S,11R)-8-hydroxy-3,6-dimethyl-1,2,3,4,5,6-hexahydro-2,6-methanobenzo[d]azocin-11-yl)-N-methyl-2-phenylacetamide] are 0.00132 ± 4e-05 µM, 0.0908 ± 0.00763 µM, 101 ± 2.52% and 75.2 ± 4.33%.
In the same order, the values of `CN1CC[C@@]2(C)c3cc(O)ccc3C[C@@H]1[C@@H]2N(C)C(=O)c1ccccc1` [Compound 119, N-((2R,6S,11R)-8-hydroxy-3,6-dimethyl-1,2,3,4,5,6-hexahydro-2,6-methanobenzo[d]azocin-11-yl)-N-methylbenzamide] are 0.0322 ± 0.00326 µM, 0.383 ± 0.0219 µM, 100 ± 2.73% and 96.7 ± 5.36%.
In the same order, the values of `CN1CC[C@@]2(C)c3cc(O)ccc3C[C@@H]1[C@H]2N(C)C(=O)C1CCCCC1` [Compound 120, N-((2R,6S,11S)-8-hydroxy-3,6-dimethyl-1,2,3,4,5,6-hexahydro-2,6-methanobenzo[d]azocin-11-yl)-N-methylcyclohexanecarboxamide] are 2.94 ± 0.481 µM, 2.86 ± 0.231 µM, 76.3 ± 3.48% and 62.3 ± 4.91%.
`CN1CC[C@@]2(C)c3cc(O)ccc3C[C@@H]1[C@@H]2N(C)C(=O)C1CCCCC1` [Compound 121, N-((2R,6S,11R)-8-hydroxy-3,6-dimethyl-1,2,3,4,5,6-hexahydro-2,6-methanobenzo[d]azocin-11-yl)-N-methylcyclohexanecarboxamide]: the figures for the EC50 in assay [1] (U-2 OS cells) and in assay [2] (setting [4]) were 0.126 ± 0.0154 µM and 0.604 ± 0.0681 µM, respectively. The results for the Emax in assay [1] (setting [3]) and in assay [2] (setting [5]) were 91.7 ± 4.18% and 18.3 ± 0.88%, respectively.
For `CN1CC[C@@]2(C)c3cc(O)ccc3C[C@@H]1[C@@H]2N(C)C(=O)/C=C/c1cccnc1` [Compound 122, (E)-N-((2R,6S,11R)-8-hydroxy-3,6-dimethyl-1,2,3,4,5,6-hexahydro-2,6-methanobenzo[d]azocin-11-yl)-N-methyl-3-(pyridin-3-yl)acrylamide], in that order: 0.00036 ± 1e-05 µM, 0.0152 ± 0.00263 µM, 102 ± 1.2% and 94.5 ± 0.65%.
Take `CN1CC[C@@]2(C)c3cc(O)ccc3C[C@@H]1[C@@H]2N(C)C(=O)Cc1ccsc1` [Compound 123, N-((2R,6S,11R)-8-hydroxy-3,6-dimethyl-1,2,3,4,5,6-hexahydro-2,6-methanobenzo[d]azocin-11-yl)-N-methyl-2-(thiophen-3-yl)acetamide]: the Emax in assay [1] (read-out: GTPγS μ Emax, U-2 OS cells) was found to be 104 ± 3.06%. In assay [2], a half-maximal response (EC50) required 0.113 ± 0.0058 µM and the maximal response (Emax) was found to be 74 ± 3.06%.
In the case of `CN1CC[C@@]2(C)c3cc(O)ccc3C[C@@H]1[C@@H]2N(C)C(=O)c1ccsc1` [Compound 124, N-((2R,6S,11R)-8-hydroxy-3,6-dimethyl-1,2,3,4,5,6-hexahydro-2,6-methanobenzo[d]azocin-11-yl)-N-methylthiophene-3-carboxamide], the EC50 is 0.0141 ± 0.00048 µM in assay [1] (U-2 OS cells) and 0.68 ± 0.0677 µM in assay [2] (setting [4]). In addition, the Emax is 98 ± 3.06% in assay [1] (setting [3]) and 77.3 ± 4.63% in assay [2] (setting [5]).

What is called EC50 is the concentration at which the effect is half-maximal. By Emax is commonly meant the size of the effect at its maximum, as opposed to the concentration needed.

The values are drawn from patent US10138207B2, “Benzomorphan analogs and the use thereof” (priority 2012, dated 2018).
